# Results taken from ChEMBL document CHEMBL3612057, “Discovery of indolizines containing triazine moiety as new leads for the development of antitumoral agents targeting mitotic events” (2015).
# Activity calls are given as the source filed them. No cut-off for these calls is given here.
# Tests used:
# [1] = system: CCRF-CEM; assay: Cytotoxicity against human CCRF-CEM cells assessed as growth inhibition at 10 uM after 24 hrs by SRB assay; type: functional
# [2] = system: HL-60(TB); assay: Cytotoxicity against human HL-60(TB) cells assessed as growth inhibition at 10 uM after 24 hrs by SRB assay; type: functional
# [3] = system: K562; assay: Cytotoxicity against human K562 cells assessed as growth inhibition at 10 uM after 24 hrs by SRB assay; type: functional
# [4] = system: RPMI-8226; assay: Cytotoxicity against human RPMI8226 cells assessed as growth inhibition at 10 uM after 24 hrs by SRB assay; type: functional
# [5] = system: SR; assay: Cytotoxicity against human SR cells assessed as growth inhibition at 10 uM after 24 hrs by SRB assay; type: functional
# [6] = system: A549; assay: Cytotoxicity against human A549 cells assessed as growth inhibition at 10 uM after 24 hrs by SRB assay; type: functional; conditions: A549, 24 h, read-out: GI
# [7] = system: HOP-62; assay: Cytotoxicity against human HOP62 cells assessed as growth inhibition at 10 uM after 24 hrs by SRB assay; type: functional
# [8] = system: HOP-92; assay: Cytotoxicity against human HOP92 cells assessed as growth inhibition at 10 uM after 24 hrs by SRB assay; type: functional
# [9] = system: NCI-H226; assay: Cytotoxicity against human NCI-H226 cells assessed as growth inhibition at 10 uM after 24 hrs by SRB assay; type: functional; conditions: NCI-H226, 24 h, read-out: GI
# [10] = system: NCI-H460; assay: Cytotoxicity against human NCI-H460 cells assessed as growth inhibition at 10 uM after 24 hrs by SRB assay; type: functional; conditions: NCI-H460, 24 h, read-out: GI
# [11] = system: NCI-H522; assay: Cytotoxicity against human NCI-H522 cells assessed as growth inhibition at 10 uM after 24 hrs by SRB assay; type: functional
# [12] = system: HCT-116; assay: Cytotoxicity against human HCT116 cells assessed as growth inhibition at 10 uM after 24 hrs by SRB assay; type: functional
# [13] = system: SF-295; assay: Cytotoxicity against human SF295 cells assessed as growth inhibition at 10 uM after 24 hrs by SRB assay; type: functional; conditions: SF-295, 24 h, read-out: GI
# [14] = system: SF-539; assay: Cytotoxicity against human SF539 cells assessed as growth inhibition at 10 uM after 24 hrs by SRB assay; type: functional
# [15] = system: SNB-75; assay: Cytotoxicity against human SNB75 cells assessed as growth inhibition at 10 uM after 24 hrs by SRB assay; type: functional; conditions: SNB-75, 24 h, read-out: GI
# [16] = system: U-251; assay: Cytotoxicity against human U251 cells assessed as growth inhibition at 10 uM after 24 hrs by SRB assay; type: functional
# [17] = system: Malme-3M; assay: Cytotoxicity against human MALME-3M cells assessed as growth inhibition at 10 uM after 24 hrs by SRB assay; type: functional; conditions: read-out: GI
# [18] = system: MDA-MB-435; assay: Cytotoxicity against human MDA-MB-435 cells assessed as growth inhibition at 10 uM after 24 hrs by SRB assay; type: functional
# [19] = system: SK-MEL-28; assay: Cytotoxicity against human SK-MEL-28 cells assessed as growth inhibition at 10 uM after 24 hrs by SRB assay; type: functional; conditions: SK-MEL-28, 24 h, read-out: GI
# [20] = system: SK-MEL-5; assay: Cytotoxicity against human SK-MEL-5 cells assessed as growth inhibition at 10 uM after 24 hrs by SRB assay; type: functional
# [21] = system: UACC-257; assay: Cytotoxicity against human UACC257 cells assessed as growth inhibition at 10 uM after 24 hrs by SRB assay; type: functional; conditions: UACC-257, 24 h, read-out: GI
# [22] = system: UACC-62; assay: Cytotoxicity against human UACC62 cells assessed as growth inhibition at 10 uM after 24 hrs by SRB assay; type: functional
# [23] = system: OVCAR-3; assay: Cytotoxicity against human OVCAR3 cells assessed as growth inhibition at 10 uM after 24 hrs by SRB assay; type: functional; conditions: OVCAR-3, 24 h, read-out: GI
# [24] = system: OVCAR-4; assay: Cytotoxicity against human OVCAR4 cells assessed as growth inhibition at 10 uM after 24 hrs by SRB assay; type: functional; conditions: OVCAR-4, 24 h, read-out: GI
# [25] = system: OVCAR-8; assay: Cytotoxicity against human OVCAR8 cells assessed as growth inhibition at 10 uM after 24 hrs by SRB assay; type: functional; conditions: OVCAR-8, 24 h, read-out: GI
# [26] = system: NCI/ADR-RES; assay: Cytotoxicity against human NCI/ADR-RES cells assessed as growth inhibition at 10 uM after 24 hrs by SRB assay; type: functional; conditions: read-out: GI
# [27] = system: SK-OV-3; assay: Cytotoxicity against human SKOV3 cells assessed as growth inhibition at 10 uM after 24 hrs by SRB assay; type: functional
# [28] = system: 786-0; assay: Cytotoxicity against human 786-0 cells assessed as growth inhibition at 10 uM after 24 hrs by SRB assay; type: functional; conditions: 786-0, 24 h, read-out: GI
# [29] = system: ACHN; assay: Cytotoxicity against human ACHN cells assessed as growth inhibition at 10 uM after 24 hrs by SRB assay; type: functional; conditions: read-out: GI
# [30] = system: CAKI-1; assay: Cytotoxicity against human CAKI-1 cells assessed as growth inhibition at 10 uM after 24 hrs by SRB assay; type: functional; conditions: CAKI-1, 24 h, read-out: GI
# [31] = system: RXF 393; assay: Cytotoxicity against human RXF393 cells assessed as growth inhibition at 10 uM after 24 hrs by SRB assay; type: functional; conditions: RXF 393, 24 h, read-out: GI
# [32] = system: TK-10; assay: Cytotoxicity against human TK10 cells assessed as growth inhibition at 10 uM after 24 hrs by SRB assay; type: functional
# [33] = system: PC-3; assay: Cytotoxicity against human PC3 cells assessed as growth inhibition at 10 uM after 24 hrs by SRB assay; type: functional; conditions: PC-3, 24 h, read-out: GI
# [34] = system: MCF7; assay: Cytotoxicity against human MCF7 cells assessed as growth inhibition at 10 uM after 24 hrs by SRB assay; type: functional; conditions: MCF7, 24 h, read-out: GI
# [35] = system: MDA-MB-231; assay: Cytotoxicity against human MDA-MB-231 cells assessed as growth inhibition at 10 uM after 24 hrs by SRB assay; type: functional; conditions: MDA-MB-231, 24 h, read-out: GI
# [36] = Cytotoxicity against human Hs578T cells assessed as growth inhibition at 10 uM after 24 hrs by SRB assay; type: functional; conditions: Hs-578T, read-out: GI
# [37] = system: T47D; assay: Cytotoxicity against human T47D cells assessed as growth inhibition at 10 uM after 24 hrs by SRB assay; type: functional; conditions: read-out: GI
# [38] = system: SNB-75; assay: Cytotoxicity against human SNB75 cells after 48 hrs by SRB assay; type: functional; conditions: SNB-75, 48 h
# [39] = system: 786-0; assay: Cytotoxicity against human 786-0 cells after 48 hrs by SRB assay; type: functional; conditions: 786-0, 48 h
# [40] = system: RXF 393; assay: Cytotoxicity against human RXF393 cells after 48 hrs by SRB assay; type: functional; conditions: RXF 393, 48 h
# [41] = system: HOP-62; assay: Cytotoxicity against human HOP62 cells after 48 hrs by SRB assay; type: functional; conditions: HOP-62, 48 h
# [42] = system: HOP-92; assay: Cytotoxicity against human HOP92 cells after 48 hrs by SRB assay; type: functional; conditions: HOP-92, 48 h
# [43] = species: Ovis aries; assay: Inhibition of sheep tubulin polymerization at 100 uM by fluorescence assay
structure (smiles),measurement,setting,value
COc1nc(OC)nc(-c2cc(C(=O)c3ccc(Br)cc3)n3ccc4ccccc4c23)n1,growth inhibition (GI),[1],inactive
same,growth inhibition (GI),[2],inactive
same,growth inhibition (GI),[3],inactive
same,growth inhibition (GI),[4],inactive
same,growth inhibition (GI),[5],inactive
same,inhibition of growth at 10 µM,[6],55%
same,growth inhibition (GI),[7],inactive
same,growth inhibition (GI),[8],inactive
same,inhibition of growth at 10 µM,[9],28%
same,inhibition of growth at 10 µM,[10],71%
same,growth inhibition (GI),[11],inactive
same,growth inhibition (GI),[12],inactive
same,inhibition of growth at 10 µM,[13],76%
same,growth inhibition (GI),[14],inactive
same,inhibition of growth at 10 µM,[15],75%
same,growth inhibition (GI),[16],inactive
same,inhibition of growth at 10 µM,[17],67%
same,growth inhibition (GI),[18],inactive
same,inhibition of growth at 10 µM,[19],52%
same,growth inhibition (GI),[20],inactive
same,inhibition of growth at 10 µM,[21],32%
same,growth inhibition (GI),[22],inactive
same,inhibition of growth at 10 µM,[23],51%
same,inhibition of growth at 10 µM,[24],33%
same,inhibition of growth at 10 µM,[25],50%
same,inhibition of growth at 10 µM,[26],46%
same,growth inhibition (GI),[27],inactive
same,inhibition of growth at 10 µM,[28],81%
same,inhibition of growth at 10 µM,[29],29%
same,inhibition of growth at 10 µM,[30],44%
same,inhibition of growth at 10 µM,[31],81%
same,growth inhibition (GI),[32],inactive
same,inhibition of growth at 10 µM,[33],58%
same,inhibition of growth at 10 µM,[34],60%
same,inhibition of growth at 10 µM,[35],96%
same,inhibition of growth at 10 µM,[36],65%
same,inhibition of growth at 10 µM,[37],38%
same,GI50,[38],2.58 µM
same,GI50,[39],4.06 µM
same,GI50,[40],3.57 µM
same,GI50,[41],22.8 µM
same,GI50,[42],13.2 µM
same,inhibition,[43],inactive
